Converted amounts (≈) assume the structure as drawn. Blank lines part the entries; values can stand above or below the molecule they belong to.
Key:
PC-3 = assay: Antiproliferative activity against human PC-3 cells assessed as inhibition of cell proliferation incubated for 3 to 7 days followed by replacement of medium containing compound every 3 days by CCK8 assay; assay type: functional, cell-based
SK-OV-3 = assay: Antiproliferative activity against human SK-OV-3 cells assessed as inhibition of cell proliferation incubated for 3 to 7 days followed by replacement of medium containing compound every 3 days by CCK8 assay; assay type: functional, cell-based
K562 = assay: Antiproliferative activity against human K562 cells assessed as inhibition of cell proliferation incubated for 48 hrs by MTT assay; assay type: functional, cell-based; details: K562, 48 h
[1] = target: T1, Histone-lysine N-methyltransferase EZH2 (Homo sapiens, UniProt Q15910); assay: Displacement of [3H-SAM] from EZH2 in PRC2 complex (unknown origin) incubated for 1 hr by […] assay
T1 sequence (Q15910 whole entry): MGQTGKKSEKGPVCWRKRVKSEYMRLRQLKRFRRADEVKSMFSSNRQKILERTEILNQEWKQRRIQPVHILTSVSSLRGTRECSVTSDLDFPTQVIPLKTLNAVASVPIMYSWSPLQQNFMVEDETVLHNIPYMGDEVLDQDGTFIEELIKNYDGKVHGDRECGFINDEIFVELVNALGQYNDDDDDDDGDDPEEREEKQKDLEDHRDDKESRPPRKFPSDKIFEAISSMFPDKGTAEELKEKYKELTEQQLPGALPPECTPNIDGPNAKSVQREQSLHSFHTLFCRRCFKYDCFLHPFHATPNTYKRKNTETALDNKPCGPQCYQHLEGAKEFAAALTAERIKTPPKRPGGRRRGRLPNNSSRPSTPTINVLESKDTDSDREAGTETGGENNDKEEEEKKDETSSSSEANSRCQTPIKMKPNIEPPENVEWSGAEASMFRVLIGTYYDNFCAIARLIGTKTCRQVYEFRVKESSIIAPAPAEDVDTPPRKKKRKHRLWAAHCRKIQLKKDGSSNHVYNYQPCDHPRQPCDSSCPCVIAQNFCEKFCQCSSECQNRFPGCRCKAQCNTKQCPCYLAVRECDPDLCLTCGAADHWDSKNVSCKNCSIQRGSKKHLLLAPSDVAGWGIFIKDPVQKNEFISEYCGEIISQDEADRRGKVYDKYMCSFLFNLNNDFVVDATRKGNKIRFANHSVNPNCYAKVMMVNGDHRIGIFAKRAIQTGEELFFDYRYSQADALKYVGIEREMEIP

Homo sapiens = organism: Homo sapiens; assay: Selectivity ratio of IC50 for EZH1 (unknown origin) to IC50 for EZH2 (unknown origin)
[2] = target: T1, Histone-lysine N-methyltransferase EZH2; assay: Inhibition of wild-type EZH2 in PRC2 complex (unknown origin) using monomethylated H3K27 as substrate by radiometric assay
[3] = Inhibition of N-terminal 6xHis SUMO-tagged human EED expressed in Escherichia coli BL21 (DE3)/FITC-labeled EZH2 (39 to 63 residues)(unknown origin) interaction incubated for 2 hrs by fluorescence polarization based competitive assay
[4] = Solubility of the compound in water; assay type: physicochemical
[5] = Binding affinity to PRC2 (unknown origin) assessed as inhibition constant; set-up: species or system Homo sapiens

IC50 (PC-3): 10 µM
IC50 (SK-OV-3): 10.5 µM
Compound: CC[C@H](C)n1cc(C)c2c(C(=O)NCc3c(C)cc(C)[nH]c3=O)cc(-c3ccc(N4CCNCC4)nc3)cc21 [GSK2816126]

IC50 (K562): 58.7 µM
Compound: Cc1cc(C)c(CNC(=O)c2c(C)cn(Cc3ccc(C(C(F)(F)F)(C(F)(F)F)C(F)(F)F)cc3)c2C)c(=O)[nH]1

IC50 [1]: 4.06 µM
Ratio IC50 (Homo sapiens): 10
Compound: Cc1cc(C)c(CNC(=O)c2cc(C)n(-c3cccc(N4CCOCC4)c3)c2C)c(=O)[nH]1

IC50 [2]: 0.0005 µM
Compound: COc1cc(C)[nH]c(=O)c1CNC(=O)c1cccc2c1cc(C)n2[C@H](C)C1CCOCC1

IC50 [3]: 54.9 µM
Compound: Cc1sc(NC(=O)CCCCC(=O)Nc2sc(C)c(C)c2C(N)=O)c(C(N)=O)c1C

solubility ([4]; buffer): 185.3 µg/mL (≈ 324 µM)
IC50 (K562): 59.2 µM
Compound: CCN(c1cc(-c2ccc(CN3CCOCC3)cc2)cc(C(=O)NCc2c(C)cc(C)[nH]c2=O)c1C)C1CCOCC1 [TAZEMETOSTAT]

IC50 (PC-3): 5.39 µM
IC50 (SK-OV-3): 7.86 µM
Compound: CC1=C(CC(=O)NCCc2c[nH]c3ccccc23)C(=O)OC2C(O)=C(O)C=CC12 (stereo unspecified)

Ki [5]: 0.024 µM
Compound: Cc1cc(C)c(CNC(=O)c2cc(-c3ccc(CN4CCOCC4)cc3)cc3c2cnn3C2CCCC2)c(=O)[nH]1

IC50 [1]: 1.06 µM
Ratio IC50 (Homo sapiens): 10
Compound: Cc1cc(C)c(CNC(=O)c2cc(C)n(-c3cccc(N4CCCCC4)c3)c2C)c(=O)[nH]1

IC50 [3]: 63.9 µM
Compound: Cc1ccc(C(C2=C(O)CC(C)(C)CC2=O)C2C(=O)CC(C)(C)CC2=O)s1 (stereo unspecified)

solubility ([4]; water, read-out: solubility): 3 µg/mL (≈ 4.79 µM)
Compound: CCN(c1cc(-c2ccc(CN3CCN(C)CC3)cc2)cc(C(=O)NCc2c3c(c(C)[nH]c2=O)CCCC3)c1C)C1CCOCC1
